Data set [1] concerns bio burden. The following applies: for Log reduction in bio burden: KIMGUARD bag, air RH=20% at 12 m/s over exterior.
For data set [2] the following is noted: rabbits, EU criteria (ECETOC, 1996); solution of 35% or less; cited from earlier work.

Like-named read-outs stand apart in the source and are kept apart here.

As to hydrogen peroxide [H2O2], the “Pennicylinders Plate count” value was determined as 0 in data set [1] (Expt A: initial H2O2 10%, nebulizer 2/18 sec ON/Off for 2 mins, total exposure 5 mins, 40 °C in bag) and 0 in data set [1] (Expt B: initial H2O2 30%, nebulizer 8/12 sec ON/Off for 2 mins, total exposure 2 mins, 44 °C in bag). Moreover, the “Pennicylinders Log reduction of bio burden” value was 6.0 in data set [1] (Expt A: initial H2O2 10%, nebulizer 2/18 sec ON/Off for 2 mins, total exposure 5 mins, 40 °C in bag, 0.0338 g/L delivered) and 6.0 in data set [1] (Expt B: initial H2O2 30%, nebulizer 8/12 sec ON/Off for 2 mins, total exposure 2 mins, 44 °C in bag, 0.246 g/L delivered). Also, the “Log reduction in bio burden” value in data set [1] (within 2 minutes nebulising a 30% peroxide solution) and in data set [1] (within 5 minutes nebulising a 10% peroxide solution) was 6 throughout. Moreover, the “Classification as skin irritant” value in data set [2] is on record as “would not be classified as skin irritants”.

These data come from patent US9192164B2, “Membrane sterilization” (SABAN VENTURES PTY LIMITED, priority 2005, dated 2015).
